Results as given in patent US11065264B2, “Metal-olsalazine coordination polymers for medical applications” (THE REGENTS OF THE UNIVERSITY OF CALIFORNIA, priority 2016, dated 2021).

Tests used:
[1] = Olsalazine release from pressed pellets under simulated gastrointestinal conditions; format: physicochemical
Procedure: To evaluate the potential utility of Ca(H2olz).xH2O coordination solids in the treatment of ulcerative colitis (x=4, 2, and 0 for 1D, 2D, and 3D materials, respectively), each material was tested for drug release in comparison with Na2(H2olz), which is the salt used in the commercial formulation (available as Dipentum®). Each material was pressed into a pellet and exposed to solutions that mimic the pH of the stomach, small intestine, and colon. The pH and composition of the release medium was changed by addition of buffers in accordance to the expected transit times of a pill through the gastrointestinal tract: the first two hours were held at pH 1.1, the next two hours at pH 6.0, and the final six hours at pH 7.3. The vessels containing the pellet in release media were shaken at 60 rpm at 37° C. to simulate the motion and temperature of the body.
Sample pellets were prepared from pure material without binders or other agents typically used for pill preparation in the pharmaceutical industry. This was done in order to probe the properties of each material without influence from any excipients. Due to this method of preparation, however, pellets were susceptible to disintegration, which can accelerate the observed dissolution rates. […] The variability in pellet integrity likely contributed to the large observed standard deviation.
FIG. 3 is a graph of the release of olsalazine from Na2(H2olz) (circles) and Ca(H2olz).xH2O materials under simulated gastrointestinal conditions (x=4, 2, 0, denoted by squares, triangles, and diamonds, respectively). Error bars represent standard deviation across three independent data sets, where the quantity of olsalazine in solution was measured spectroscopically (λ=360 nm). The release media were changed throughout the study to emulate the typical pH and transit times of a pill passing through the stomach (pH 1.1, 2 h), small intestine (pH 6.0, 2 h), and colon (pH 7.3, 6 h).

[2] = Content of active pharmaceutical ingredient by weight; format: physicochemical
[3] = treatment of ulcerative colitis; cited from earlier work

In the case of O=C(O)c1cc(/N=N/c2ccc(O)c(C(=O)O)c2)ccc1O [Na2(H2olz), olsalazine disodium], the “amount of drug (olsalazine) released at the four-hour time point” value ([1]; pellet without excipients, pH 1.1 2 h then pH 6.0 2 h, 37° C., 60 rpm, absorbance 360 nm) is reported as “over 90%”, the “pellet disintegration in contact with the release solution” value ([1]; pellets of pure material without binders) is reported as “partially disintegrated” and the “rate of olsalazine release/dissolution, Na2(H2olz) compared with Ca(H2olz) materials” value ([1]; simulated gastrointestinal environment, pH 6.0 and above) is reported as “dissolved more rapidly”. The “percentage of the active pharmaceutical ingredient (olsalazine) by weight” value [2] was 79%, the “patients discontinuing treatment because of diarrhea” value [3] was “over 10%” and the “patients experiencing diarrhea as a side effect” value [3] was ≤ 35%.
